The values below come from ChEMBL document CHEMBL1201862, “PubChem BioAssay data set” (2004).

Some test systems named below: NCI-H226; SNB-19; SF-268; SK-MEL-5; SK-MEL-28; MDA-N; HCT-116; SK-OV-3; M14; Malme-3M; A549; CAKI-1; COLO 205; HOP-92; Hs-578T; 786-0; SNB-75; SW-620; NCI/ADR-RES; HOP-62.
What all share (test): NCI anticancer screen, dose series, 48 h

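Results reflect a 48-hour exposure of cells in 96-well plates to compound at five concentrations. The concentration for 50% growth inhibition is given as GI50.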 Activity calls are given as the source filed them. Rule as the data show it: active = GI50 up to about 1.1 µM and inactive = higher.

For `Cn1c(NNc2ccccc2)cc(=O)[nH]c1=O`, the GI50 with NCI-H226 was > 100 µM (inactive); in the test with SNB-19, > 100 µM (inactive); with SF-268 it was 34.1 µM (inactive); with SK-MEL-5 it was 25.6 µM (inactive); in the test with SK-MEL-28 it was 37.8 µM (inactive); in the test with MDA-N it was 20.5 µM (inactive). Further, the GI50 was 42.5 µM (inactive) with HCT-116; 72.6 µM (inactive) in the test with SK-OV-3; 33.9 µM (inactive) in the test with M14; 57.8 µM (inactive) in the test on Malme-3M; 37.7 µM (inactive) in the test on A549; 29.9 µM (inactive) in the test with CAKI-1. Moreover, the GI50 in the test with COLO 205 is 36.9 µM (inactive); in the test with HOP-92, 63.8 µM (inactive); with Hs-578T, > 100 µM (inactive); in the test with 786-0, 20.5 µM (inactive); in the test with SNB-75, 81.7 µM (inactive); with SW-620, 62.1 µM (inactive). For the same compound, the values for the GI50 in the test with NCI/ADR-RES and with HOP-62 were 35.8 µM (inactive) and > 100 µM (inactive), respectively.
Consider `O=C1NC(Cc2ccc(O)cc2)C(=O)NC1Cc1ccc(O)cc1` (stereo not given), for which the GI50 in the test with NCI-H226 is > 100 µM (inactive); in the test with SNB-19, > 100 µM (inactive); in the test on SF-268, > 100 µM (inactive); in the test with SK-MEL-5, > 100 µM (inactive); with SK-MEL-28 it was > 100 µM (inactive); in the test with MDA-N, 30.1 µM (inactive). For the same compound, the GI50 in the test with HCT-116, with SK-OV-3, in the test on M14, in the test on Malme-3M, with A549 and in the test on CAKI-1 was > 100 µM (inactive) each time. In addition, the GI50 with COLO 205 is > 100 µM (inactive); in the test on HOP-92 it was > 100 µM (inactive); in the test on Hs-578T, > 100 µM (inactive); in the test with 786-0, > 100 µM (inactive); in the test with SNB-75, 28.2 µM (inactive); with SW-620, > 100 µM (inactive). In addition, the GI50 with NCI/ADR-RES and in the test on HOP-62 was > 100 µM (inactive) in each case.
For the compound `COc1ccc2ccccc2c1C1NC(=O)c2ccccc2N1` (stereo not given), the GI50 in the test with NCI-H226 was 1.57 µM (inactive); with SNB-19, 2.84 µM (inactive); with SF-268, 3.08 µM (inactive); in the test with SK-MEL-5, 0.384 µM (active); in the test with SK-MEL-28 it was 0.802 µM (active); with MDA-N it was 0.173 µM (active). Also, the GI50 in the test on HCT-116 was 0.614 µM (active); in the test on SK-OV-3, 2.82 µM (inactive); in the test with M14, 0.951 µM (active); with Malme-3M, 0.634 µM (active); in the test on A549, 1.51 µM (inactive); in the test on CAKI-1, 2.62 µM (inactive). For the same compound, the GI50 was 1.87 µM (inactive) with COLO 205; 14.8 µM (inactive) with HOP-92; 1.7 µM (inactive) in the test with Hs-578T; 1.53 µM (inactive) in the test with 786-0; 1.32 µM (inactive) in the test on SNB-75; 0.536 µM (active) with SW-620. The GI50 in the test with NCI/ADR-RES is 0.507 µM (active); with HOP-62 it was 3.51 µM (inactive).
As for `C(=N\c1ccc(-c2nc3ccccc3[nH]2)cc1)/c1cccs1`, the GI50 with NCI-H226 was > 100 µM (inactive); with SNB-19, > 100 µM (inactive); with SF-268, > 100 µM (inactive); with SK-MEL-5, 54 µM (inactive); in the test with SK-MEL-28, > 100 µM (inactive); with MDA-N, > 100 µM (inactive). Besides, the GI50 in the test with HCT-116, in the test on SK-OV-3, in the test with M14, in the test on Malme-3M, in the test with A549 and in the test with CAKI-1 was > 100 µM (inactive) in each case. Further, the GI50 with COLO 205 was 97.5 µM (inactive); in the test on HOP-92 it was 17.7 µM (inactive); in the test on Hs-578T, > 100 µM (inactive); with 786-0 it was > 100 µM (inactive); with SNB-75, 81.1 µM (inactive); in the test on SW-620 it was 96.4 µM (inactive). In addition, the GI50 in the test with NCI/ADR-RES was 43 µM (inactive); with HOP-62, > 100 µM (inactive).
As for `CCOC(=O)/C(C(N)=O)=C(O)/C(O)=C(\Br)C(=O)c1ccccc1`, the GI50 with NCI-H226 was 19.5 µM (inactive); in the test on SNB-19 it was 47 µM (inactive); with SF-268, 19.5 µM (inactive); in the test with SK-MEL-5, 16.6 µM (inactive); with SK-MEL-28 it was 17.9 µM (inactive); in the test with MDA-N, 17.5 µM (inactive). Also, the GI50 with HCT-116 is 16.4 µM (inactive); with SK-OV-3, 26.2 µM (inactive); in the test on M14, 14.6 µM (inactive); in the test on Malme-3M, 15.1 µM (inactive); in the test with A549 it was 20.4 µM (inactive); in the test on CAKI-1, 11.1 µM (inactive). Besides, the GI50 in the test with COLO 205 was 17.3 µM (inactive); in the test with HOP-92, 19.9 µM (inactive); with Hs-578T it was 20.4 µM (inactive); with 786-0 it was 15.8 µM (inactive); in the test with SNB-75, 17.3 µM (inactive); in the test on SW-620 it was 9.66 µM (inactive). In addition, the GI50 is 25.8 µM (inactive) in the test with NCI/ADR-RES and 20.5 µM (inactive) in the test on HOP-62.
For the compound `NC(CCC(=O)O)C(=O)NC(Cc1ccc(N(CCCl)CCCl)cc1)C(=O)O` (stereo not given), the GI50 in the test with NCI-H226, in the test with SNB-19, in the test on SF-268, with SK-MEL-5, in the test on SK-MEL-28 and in the test on MDA-N was > 100 µM (inactive) each time. The GI50 in the test with HCT-116 was > 100 µM (inactive); in the test on SK-OV-3 it was > 100 µM (inactive); with M14, > 100 µM (inactive); with Malme-3M it was > 100 µM (inactive); in the test with A549 it was > 100 µM (inactive); with CAKI-1, 81.8 µM (inactive). The GI50 in the test on COLO 205, in the test with HOP-92, with Hs-578T, in the test with 786-0, in the test on SNB-75 and with SW-620 was > 100 µM (inactive) in each case. Moreover, the GI50 in the test on NCI/ADR-RES and in the test on HOP-62 was > 100 µM (inactive) in each case.
In the case of `O=C(NCCN(CCNC(=O)c1cccc(O)c1O)CCNC(=O)c1cccc(O)c1O)c1cccc(O)c1O` [TRENCAM], the GI50 with NCI-H226 was 14.8 µM (inactive); in the test with SNB-19 it was 5.22 µM (inactive); in the test on SF-268 it was 2.06 µM (inactive); in the test on SK-MEL-5, 2.75 µM (inactive); with SK-MEL-28 it was 3.82 µM (inactive); in the test on MDA-N it was 9.31 µM (inactive). Further, the GI50 is 4.2 µM (inactive) in the test with HCT-116; 16.7 µM (inactive) in the test with SK-OV-3; 5.55 µM (inactive) in the test on M14; 2.51 µM (inactive) with Malme-3M; 15 µM (inactive) in the test with A549; 21.9 µM (inactive) in the test on CAKI-1. Further, the GI50 is 5.15 µM (inactive) with COLO 205; 7.53 µM (inactive) in the test on HOP-92; 29.7 µM (inactive) with Hs-578T; 5.89 µM (inactive) in the test with 786-0; 22.2 µM (inactive) in the test on SNB-75; 2.4 µM (inactive) in the test on SW-620. Besides, the GI50 in the test on NCI/ADR-RES was 49.4 µM (inactive); with HOP-62, 6.59 µM (inactive).
Take `O=C1NC(=O)C(c2c[nH]c3cc(Br)ccc23)=C1c1cn(C(c2ccccc2)(c2ccccc2)c2ccccc2)cn1`: the GI50 in the test with NCI-H226 was 3.38 µM (inactive); in the test on SNB-19, 23.9 µM (inactive); in the test with SF-268, 13.8 µM (inactive); with SK-MEL-5 it was 10.5 µM (inactive); in the test with SK-MEL-28, 27.2 µM (inactive); in the test with MDA-N, 10.1 µM (inactive). Besides, the GI50 with HCT-116 is 10.5 µM (inactive); with SK-OV-3, 28.6 µM (inactive); with M14 it was 13.2 µM (inactive); in the test with Malme-3M, 19.5 µM (inactive); in the test with A549, 7.24 µM (inactive); with CAKI-1 it was 22.6 µM (inactive). In addition, the GI50 in the test with COLO 205 is 12.3 µM (inactive); with HOP-92, 13.9 µM (inactive); in the test with Hs-578T, 22.4 µM (inactive); in the test on 786-0 it was 8.85 µM (inactive); in the test with SNB-75 it was 11.5 µM (inactive); with SW-620, 15.7 µM (inactive). For the same compound, the GI50 in the test with NCI/ADR-RES was 27.2 µM (inactive); with HOP-62 it was 24.7 µM (inactive).
As for `NS(=O)(=O)c1ccc(/N=N/c2cc3ccccc3c(C(=O)O)c2O)cc1`, the GI50 in the test on NCI-H226 was > 100 µM (inactive); in the test with SNB-19, > 64.9 µM (inactive); in the test with SF-268, > 52.1 µM (inactive); with SK-MEL-5 it was > 59.2 µM (inactive); in the test with SK-MEL-28 it was > 60.1 µM (inactive); in the test on MDA-N, > 100 µM (inactive). Also, the GI50 in the test on HCT-116 is 12.6 µM (inactive); in the test on SK-OV-3 it was > 66.4 µM (inactive); with M14, 97.1 µM (inactive); in the test with Malme-3M, > 56.9 µM (inactive); in the test on A549 it was > 52.7 µM (inactive); in the test on CAKI-1 it was > 100 µM (inactive). In addition, the GI50 in the test with COLO 205 is > 58.6 µM (inactive); with HOP-92, 99.1 µM (inactive); in the test with Hs-578T, > 67.3 µM (inactive); with 786-0 it was > 55.8 µM (inactive); in the test on SNB-75, > 60.7 µM (inactive); with SW-620 it was > 41.8 µM (inactive). Besides, the values for the GI50 in the test with NCI/ADR-RES and with HOP-62 were > 64.1 µM (inactive) and > 59.2 µM (inactive), respectively.
Take `Oc1nc2nnc(COc3ccc(Cl)cc3Cl)n2nc1Cc1ccccc1`: the GI50 with NCI-H226 was 25.1 µM (inactive); in the test with SNB-19, 31.6 µM (inactive); with SF-268, 63.4 µM (inactive); in the test on SK-MEL-5, > 100 µM (inactive); in the test with SK-MEL-28, > 100 µM (inactive); with MDA-N, > 100 µM (inactive). In addition, the GI50 in the test with HCT-116 was 52.5 µM (inactive); in the test on SK-OV-3, 27.4 µM (inactive); in the test on M14, > 100 µM (inactive); in the test on Malme-3M it was > 100 µM (inactive); with A549, 94.2 µM (inactive); in the test with CAKI-1, > 100 µM (inactive). The GI50 is > 100 µM (inactive) with COLO 205; 32.7 µM (inactive) in the test with HOP-92; 51.6 µM (inactive) in the test on Hs-578T; 20.8 µM (inactive) in the test with 786-0; 16 µM (inactive) with SNB-75; > 100 µM (inactive) with SW-620. In addition, the GI50 in the test on NCI/ADR-RES is 43.1 µM (inactive); in the test on HOP-62 it was 47.2 µM (inactive).
